Measured values from patent US12275721B2, “Indazole carboxamides as kinase inhibitors” (BRISTOL-MYERS SQUIBB COMPANY, priority 2019, dated 2025).
pIC50: −log10 of the molar value.

How the values were obtained:
[1] = test system: MLKL phosphorylation in HT29-L23 human colorectal adenocarcinoma cells; experiment: MLKL Phosphorylation High-Content Assay; assay type: cell-based; settings: Homo sapiens, necroptosis induced with TNFα, SMAC mimetic and Z-VAD, 6 h, read-out: pMLKL (IC50)
Experimental: MLKL Phosphorylation High-Content Assay
HT29-L23 human colorectal adenocarcinoma cells were maintained in RPMI 1640 medium containing 10% heat-inactivated FBS, 1% Penicillin-Streptomycin and 10 mM HEPES. Cells were seeded at 2,000 cells/well in 384 well tissue culture-treated microplates (Greiner #781090-3B) and incubated at 37° C. (5% CO2/95% O2) for 2 d. On the day of the assay, the cells were treated with test compounds at final concentrations of 6.25 to 0.106 μM for 30 min at 37° C. (5% CO2/95% O2). Necroptopsis was induced using a mixture of human TNFα (35 ng/mL) (Peprotech #300-01A), SMAC mimetic (from US 2015/0322111 A1) (700 nM) and Z-VAD (140 nM) (BD pharmingen #51-6936). Following 6 h incubation at 37° C. (5% CO2/95% O2), the cells were fixed with 4% formaldehyde (ACROS 11969-0010) for 15 min at rt, then permeabilized with phosphate buffered saline (PBS) containing 0.2% Triton-X-100 for 10 min. MLKL phosphorylation was detected using anti-MLKL (phospho S358) antibody (Abcam #ab187091) (1:1000 dilution in Blocking Buffer [PBS supplemented with 0.1% BSA]) with ON incubation at 4° C. After washing three times in PBS, goat anti-rabbit Alexa-488 (1:1000 dilution) (Life Technologies, A1 1008) and Hoechst 33342 (Life Technologies, H3570) (1:2000 dilution) in Blocking Buffer were added for 1 h at rt. Following another three cycles of washes in PBS, the microplates were sealed, and cellular images were acquired in the Cellomics ArrayScan VTI high-content imager equipped with an X1 camera. Fluorescent images were taken using a 10× objective and the 386-23 BGRFRN_BGRFRN and 485-20 BGRFRN_BGRFRN filter sets, for nuclei and MLKL phosphorylation, respectively. The image sets were analyzed using the Compartmental Analysis Bioapplication software (Cellomics). The level of MLKL phosphorylation was quantified as MEAN_CircRingAvglntenRatio. The maximal inhibitory response was defined by the activity induced by Necls (CAS #: 852391-15-2, 6.25 μm). The IC50 value was defined as the concentration of compound that produces 50% of the maximal inhibition. The data were fitted using the 4-parameter logistic equation to calculate the IC50 and Ymax values.

[2] = target: T1, His-GST-TVMV-hRIPK1(1-324) (Homo sapiens, UniProt Q13546); experiment: RIPK1 HTRF Binding Assay; settings: HTRF probe displacement, 1 h at rt
T1 construct: 1 nM His-GST-TVMV-hRIPK1(1-324) in FRET Buffer; made in house; host or cells: Spodoptera frugiperda (Sf9) insect cells, baculovirus (Bac-to-Bac)
T1 sequence (Q13546 1-324): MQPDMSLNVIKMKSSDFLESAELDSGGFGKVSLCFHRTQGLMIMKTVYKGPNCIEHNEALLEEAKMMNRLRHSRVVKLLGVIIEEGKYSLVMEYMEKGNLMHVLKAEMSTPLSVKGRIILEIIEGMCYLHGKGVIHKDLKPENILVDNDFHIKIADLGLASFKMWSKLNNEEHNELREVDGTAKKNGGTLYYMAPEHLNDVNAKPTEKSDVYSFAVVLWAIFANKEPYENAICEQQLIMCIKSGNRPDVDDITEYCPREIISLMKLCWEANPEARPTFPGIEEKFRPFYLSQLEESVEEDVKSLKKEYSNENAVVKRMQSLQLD
Experimental: A solution was prepared containing 0.2 nM Anti GST-Tb (Cisbio, 61GSTTLB), 90.6 nM probe and 1 nM His-GST-TVMV-hRIPK1(1-324) in FRET Buffer (20 mM HEPES, 10 mM MgCl2, 0.015% Brij-35, 4 mM DTT, 0.05 mg/mL BSA). Using Formulatrix Tempest, the detection antibody/enzyme/probe solution ([…]) was dispensed into wells of a 1536 plate (Black Low Binding Polystyrene 1536 Plate (Corning, 3724)) containing 10 nL of compounds of interest at appropriate concentration in DMSO. The plate was incubated at rt for 1 h. FRET was measured using the EnVision plate reader (Excitation: 340 nm, Emission: 520 nm/[…]). Total signal (0% inhibition) was calculated from wells containing 10 nL DMSO only.
Cloning and Baculovirus Expression of RIPK1 Construct
The coding region of human RIPK1(1-324) flanked by NdeI site at 5′ end and stop codon TGA and XhoI site at 3′ end was codon optimized and gene synthesized at GenScript USA Inc. (Piscataway, NJ) and subcloned into a modified pFastBac1 vector (Invitrogen, Carlsbad, CA) with N-terminal His-GST-TVMV tag, to generate His-GST TVMV-hRIPK1(1-324)-pFB. The fidelity of the synthetic fragment was confirmed by sequencing. Baculovirus was generated for the construct using the Bac-to-Bac baculovirus expression system (Invitrogen) according to the manufacturer's protocol. Briefly, recombinant bacmid was isolated from transformed DH10Bac E. coli competent cells 20 (Invitrogen) and used to transfect Spodoptera frugiperda (Sf9) insect cells (Invitrogen). Baculovirus was harvested 72 hours post transfection and a virus stock was prepared by infecting fresh Sf9 cells at a 1/1000 (v/v) ratio for 66 hours. For large scale protein production, Sf9 cells (Expression System, Davis, CA) grown in ESF921 insect medium (Expression System) at 2×10^6 cells/ml were infected with virus stock at a 1/100 (v/v) ratio for 66 hours. The production was carried out either at a 10 L scale in a 22 L cellbag (GE Healthcare Bioscience, Pittsburgh, PA) or at a 20 L scale in a 50 L cellbag using WAVE-Bioreactor System 20/50 (GE Healthcare Bioscience). The infected cells were harvested by centrifugation at 2000 rpm for 20 min at 4° C. in a SORVALL® RC12BP centrifuge. The cell pellets was stored at −70° C. before protein was purified.
Purification of His-GST-TVMV-hRIPK1(1-324)
RIPK1 containing cell paste was resuspended in 50 mM Tris pH 7.5, 150 mM NaCl, 10 mM imidazole, 5% glycerol, 5 mM MgSO4, 1 mM TCEP, 25 U/ml Benzonase, and Complete Protease Inhibitor tablets (1/50 ml, Roche Diagnostics, Indianapolis, IN). The cells were lysed by nitrogen cavitation using an unstirred pressure vessel @ 525 PSI (Parr Instrument Company, Moline, IL). The suspension was clarified by centrifugation at 136,000×g for 40 min, at 4° C. The lysate was decanted from the pellet and passed through a 5 ml NiNTA Superflow cartridge (Qiagen, Valencia, CA) using an AKTA Pure (GE Healthcare). Column was eluted with 10 CV linear gradient into 50 mM Tris 7.5, 150 mM NaCl, 500 mM imidazole, 5% glycerol, 1 mM TCEP. Peak fractions were pooled and loaded directly onto 5 ml GSTrap 4B column (GE Healthcare). Column was washed with 50 mM Tris 7.0, 150 mM NaCl, […], 1 mM DTT and eluted in 10 CV linear gradient into 50 mM Tris 8.0, 150 mM NaCl, 20 mM reduced glutathione, 50% glycerol, 1 mM DTT. Fractions identified by SDS-PAGE as containing RIPK1 were pooled and concentrated using 30 kDa MWCO spin concentrators (Amicon Ultra-15, Millipore, Billerica, MA) and loaded onto a HiLoad 26/600 Superdex 200 column (GE Healthcare) equilibrated in 25 mM Tris 7.5, 150 mM NaCl, 2 mM TCEP, […]. The RTPK1 protein eluted as a dimer off the SEC column. The yield was ˜8 mg/L with a purity […] as determined by Coomassie stain SDS-PAGE gel analysis. […] Protein was aliquoted and stored at −80° C. Using these assays, the IC50 values of the following compounds were determined.

SMILES	pIC50 [1]	pIC50 [2]
CNC(=O)c1n[nH]c2cc(-c3nc(C(=O)NCCC(C)c4ccccc4)c(C)n3C)ccc12 (stereo not shown) [Example 32, 6-(1,5-dimethyl-4-((3-phenylbutyl)carbamoyl)-1H-imidazol-2-yl)-N-methyl-1H-indazole-3-carboxamide]	6.34	6.64
CNC(=O)c1n[nH]c2cc(-c3nc(C)c(C(=O)NCc4cc(C(F)(F)F)ccc4F)n3C)ccc12 [Example 30, 6-(5-((2-fluoro-5-(trifluoromethyl)benzyl)carbamoyl)-1,4-dimethyl-1H-imidazol-2-yl)-N-methyl-1H-indazole-3-carboxamide]	6.82	7.00
CC(C)NC(=O)c1n[nH]c2cc(-c3csc(C(=O)NCC[C@@H](O)c4ccc(Cl)cc4)c3)ccc12 [Example 5, (R)-6-(5-((3-(4-chlorophenyl)-3-hydroxypropyl)carbamoyl)thiophen-3-yl)-N-isopropyl-1H-indazole-3-carboxamide]	5.96	6.10
CNC(=O)c1n[nH]c2cc(-c3nc(C)c(C(=O)NCc4cc(C(F)(F)F)ccc4F)s3)ccc12 [Example 18, N-(2-fluoro-5-(trifluoromethyl)benzyl)-4-methyl-2-(3-(methylcarbamoyl)-1H-indazol-6-yl)thiazole-5-carboxamide]	8.05	7.82
CNC(=O)c1n[nH]c2cc(-c3cc(C)c(C(=O)NCCC(C)c4ccccc4)s3)ccc12 (stereo not shown) [Example 11, N-methyl-6-(4-methyl-5-((3-phenylbutyl)carbamoyl)thiophen-2-yl)-1H-indazole-3-carboxamide]	8.70	8.74
CNC(=O)c1n[nH]c2cc(-c3nc(C)c(C(=O)NC(C)c4cc(OC(F)(F)F)ccc4F)s3)ccc12 (stereo not shown) [Example 19, N-(1-(2-fluoro-5-(trifluoromethoxy)phenyl)ethyl)-4-methyl-2-(3-(methylcarbamoyl)-1H-indazol-6-yl)thiazole-5-carboxamide]	7.72	7.89
CNC(=O)c1n[nH]c2cc(-c3csc(C(=O)NCC[C@@H](O)c4ccc(Cl)cc4)c3)ccc12 [Example 3, (R)-6-(5-((3-(4-chlorophenyl)-3-hydroxypropyl)carbamoyl)thiophen-3-yl)-N-methyl-1H-indazole-3-carboxamide]	6.70	7.33
CNC(=O)c1n[nH]c2cc(-c3cc(C)c(C(=O)NCC[C@@H](O)c4ccc(Cl)cc4)s3)ccc12 [Example 12, (R)-6-(5-((3-(4-chlorophenyl)-3-hydroxypropyl)carbamoyl)-4-methylthiophen-2-yl)-N-methyl-1H-indazole-3-carboxamide]	7.96	8.42
CNC(=O)c1n[nH]c2cc(-c3ccc(C(=O)NCCC(C)c4ccccc4)s3)ccc12 (stereo not shown) [Example 7, N-methyl-6-(5-((3-phenylbutyl)carbamoyl)thiophen-2-yl)-1H-indazole-3-carboxamide]	8.41	7.77
CNC(=O)c1n[nH]c2cc(-c3nc(C(=O)NCc4cc(C(F)(F)F)ccc4F)c(C)n3C)ccc12 [Example 35, 6-(4-((2-fluoro-5-(trifluoromethyl)benzyl)carbamoyl)-1,5-dimethyl-1H-imidazol-2-yl)-N-methyl-1H-indazole-3-carboxamide]	6.05	6.70
CNC(=O)c1n[nH]c2cc(-c3nc(C(=O)NCc4cc(OC(F)(F)F)ccc4F)c(C)n3C)ccc12 [Example 31, 6-(4-((2-fluoro-5-(trifluoromethoxy)benzyl)carbamoyl)-1,5-dimethyl-1H-imidazol-2-yl)-N-methyl-1H-indazole-3-carboxamide]	6.22	7.18
CNC(=O)c1n[nH]c2cc(-c3csc(C(=O)NCc4cc(OC(F)(F)F)ccc4F)c3)ccc12 [Example 1, 6-(5-((2-fluoro-5-(trifluoromethoxy)benzyl)carbamoyl)thiophen-3-yl)-N-methyl-1H-indazole-3-carboxamide]	7.68	8.17
CNC(=O)c1n[nH]c2cc(-c3nc(C(=O)NCC[C@@H](O)c4ccc(Cl)cc4)cs3)ccc12 [Example 22, (R)-N-(3-(4-chlorophenyl)-3-hydroxypropyl)-2-(3-(methylcarbamoyl)-1H-indazol-6-yl)thiazole-4-carboxamide]	5.92	6.48
CNC(=O)c1n[nH]c2cc(-c3ncc(C(=O)NCC[C@@H](O)c4ccc(Cl)cc4)s3)ccc12 [Example 25, (R)-N-(3-(4-chlorophenyl)-3-hydroxypropyl)-2-(3-(methylcarbamoyl)-1H-indazol-6-yl)thiazole-5-carboxamide]	5.80	6.55
